From ChEMBL document CHEMBL1201862, “PubChem BioAssay data set” (2004)
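Method: 48-hour compound exposure of cells in 96-well plates, five concentrations, linear interpolation of endpoints. GI50 is the concentration that inhibits growth by half.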 The source made the active and inactive calls. Rule as the data show it: active = GI50 up to about 1.1 µM and inactive = higher.

Tests used:
Test in all cases: NCI-60 cell line screen, 48 h
786-0 = system: 786-0
A549 = system: A549
ACHN = system: ACHN
CAKI-1 = system: CAKI-1
CCRF-CEM = system: CCRF-CEM
COLO 205 = system: COLO 205
HL-60 = system: HL-60
HOP-62 = system: HOP-62
IGROV-1 = system: IGROV-1
K562 = system: K562
M14 = system: M14
MCF7 = system: MCF7
MDA-MB-435 = system: MDA-MB-435
MOLT-4 = system: MOLT-4
Malme-3M = system: Malme-3M
NCI-H23 = system: NCI-H23
NCI-H460 = system: NCI-H460
NCI/ADR-RES = system: NCI/ADR-RES
OVCAR-4 = system: OVCAR-4
OVCAR-5 = system: OVCAR-5
RPMI-8226 = system: RPMI-8226
RXF 393 = system: RXF 393
SF-268 = system: SF-268
SK-MEL-28 = system: SK-MEL-28
SK-MEL-2 = system: SK-MEL-2
SK-MEL-5 = system: SK-MEL-5
SK-OV-3 = system: SK-OV-3
SNB-75 = system: SNB-75
SR = system: SR
SW-620 = system: SW-620
T47D = system: T47D
U-251 = system: U-251
UACC-62 = system: UACC-62
A498 = system: A498
DU-145 = system: DU-145
EKVX = system: EKVX
HCC 2998 = system: HCC 2998
HCT-116 = system: HCT-116
HCT-15 = system: HCT-15
HOP-92 = system: HOP-92
HT-29 = system: HT-29
KM12 = system: KM12
LOX IMVI = system: LOX IMVI
MDA-MB-231 = system: MDA-MB-231
MDA-N = system: MDA-N
NCI-H226 = system: NCI-H226
NCI-H522 = system: NCI-H522
OVCAR-3 = system: OVCAR-3
OVCAR-8 = system: OVCAR-8
PC-3 = system: PC-3
SF-295 = system: SF-295
SF-539 = system: SF-539
SN12C = system: SN12C
SNB-19 = system: SNB-19
TK-10 = system: TK-10
UACC-257 = system: UACC-257
UO-31 = system: UO-31
BT-549 = system: BT-549
Hs-578T = system: Hs-578T

Measured: GI50

CC1=C2C(=O)c3ccccc3C2=C(C)S(=O)(=O)O1
inactive: 786-0 > 10 µM | A549 > 10 µM | ACHN > 10 µM | CAKI-1 > 10 µM | CCRF-CEM > 10 µM | COLO 205 > 10 µM | HL-60 > 10 µM | HOP-62 > 10 µM | IGROV-1 > 10 µM | K562 > 10 µM | M14 > 10 µM | MCF7 > 10 µM | MDA-MB-435 > 10 µM | MOLT-4 > 10 µM | Malme-3M > 10 µM | NCI-H23 > 10 µM | NCI-H460 > 10 µM | NCI/ADR-RES > 10 µM | OVCAR-4 > 10 µM | OVCAR-5 > 10 µM | RPMI-8226 > 10 µM | RXF 393 > 10 µM | SF-268 > 10 µM | SK-MEL-28 > 10 µM | SK-MEL-2 > 10 µM | SK-MEL-5 > 10 µM | SK-OV-3 > 10 µM | SNB-75 > 10 µM | SR > 10 µM | SW-620 > 10 µM | T47D > 10 µM | U-251 > 10 µM | UACC-62 > 10 µM

C=C(C)[C@H]1CC[C@@]23O[C@@H]2[C@@H](C[C@@]2(C)CC(=O)[C@H](CC(=O)C1)O2)OC(=O)[C@@]12CC[C@H](C(=C)C)CC(=O)C[C@H]4O[C@](C)(CC4=O)C[C@@H](OC3=O)[C@@H]1O2 [SINGARDIN]
> 100 µM: HCT-15
inactive: 786-0 > 100 µM | A498 > 100 µM | A549 > 100 µM | ACHN > 100 µM | CAKI-1 > 100 µM | CCRF-CEM 91.8 µM | COLO 205 > 100 µM | DU-145 > 100 µM | EKVX > 100 µM | HCC 2998 > 100 µM | HCT-116 > 100 µM | HL-60 > 100 µM | HOP-62 > 100 µM | HOP-92 > 100 µM | HT-29 > 100 µM | IGROV-1 52.8 µM | K562 > 100 µM | KM12 52.5 µM | LOX IMVI > 100 µM | M14 > 100 µM | MCF7 > 100 µM | MDA-MB-231 > 100 µM | MDA-MB-435 > 100 µM | MDA-N > 100 µM | MOLT-4 > 100 µM | Malme-3M > 100 µM | NCI-H226 > 100 µM | NCI-H23 > 100 µM | NCI-H522 > 100 µM | NCI/ADR-RES > 100 µM | OVCAR-3 > 100 µM | OVCAR-4 > 100 µM | OVCAR-5 > 100 µM | OVCAR-8 > 100 µM | PC-3 > 100 µM | RPMI-8226 > 100 µM | RXF 393 > 100 µM | SF-295 > 100 µM | SF-539 > 100 µM | SK-MEL-28 > 100 µM | SK-MEL-2 > 100 µM | SK-MEL-5 74.5 µM | SK-OV-3 > 100 µM | SN12C > 100 µM | SNB-19 > 100 µM | SNB-75 > 100 µM | T47D > 100 µM | TK-10 > 100 µM | U-251 > 100 µM | UACC-257 > 100 µM | UACC-62 > 100 µM | UO-31 > 100 µM

O=[N+]([O-])c1cc(Cl)ccc1S(=O)(=O)N1CCCc2cc(Cl)ccc21
inactive: 786-0 > 100 µM | A498 45.6 µM | A549 43.1 µM | ACHN > 100 µM | BT-549 31.9 µM | CAKI-1 45.2 µM | CCRF-CEM 6.17 µM | COLO 205 51.8 µM | DU-145 61.5 µM | EKVX > 100 µM | HCC 2998 > 100 µM | HCT-116 28.6 µM | HL-60 > 10 µM | HOP-62 > 100 µM | HOP-92 30.8 µM | HT-29 21 µM | Hs-578T > 100 µM | IGROV-1 30.8 µM | K562 9.48 µM | KM12 51.9 µM | LOX IMVI 34.8 µM | M14 > 100 µM | MCF7 45.8 µM | MDA-MB-231 > 100 µM | MDA-MB-435 17.8 µM | MDA-N 22.5 µM | MOLT-4 6.11 µM | Malme-3M 51.5 µM | NCI-H226 82.4 µM | NCI-H460 30.5 µM | NCI/ADR-RES 25.5 µM | OVCAR-3 > 100 µM | OVCAR-4 88.9 µM | OVCAR-5 > 100 µM | OVCAR-8 > 100 µM | PC-3 55 µM | RPMI-8226 20.6 µM | RXF 393 51.2 µM | SF-268 > 100 µM | SF-295 45.7 µM | SF-539 93.1 µM | SK-MEL-28 > 100 µM | SK-MEL-2 > 100 µM | SK-MEL-5 30.8 µM | SK-OV-3 59.6 µM | SN12C > 100 µM | SNB-19 > 100 µM | SNB-75 18.7 µM | SW-620 > 100 µM | TK-10 > 100 µM | UACC-257 7.08 µM | UACC-62 19.7 µM | UO-31 46.2 µM
33.7 µM: HCT-15

COc1c(C)c(C/C=C(\C)CCCCO)c(OC)c2ccccc12
inactive: 786-0 38 µM | A549 36.1 µM | ACHN 36.1 µM | BT-549 46.7 µM | CAKI-1 17.9 µM | CCRF-CEM 28.8 µM | COLO 205 38.2 µM | DU-145 45.3 µM | EKVX 61.5 µM | HCC 2998 23.3 µM | HCT-116 28.9 µM | HOP-92 21.4 µM | HT-29 20.4 µM | Hs-578T 30.2 µM | IGROV-1 65.8 µM | K562 29.4 µM | KM12 23.9 µM | LOX IMVI 18.8 µM | M14 37.2 µM | MCF7 38.5 µM | MDA-MB-231 40.6 µM | MDA-MB-435 32.6 µM | MDA-N 42.2 µM | MOLT-4 21.2 µM | NCI-H23 29.7 µM | NCI-H460 20.6 µM | NCI-H522 19.1 µM | NCI/ADR-RES 42.6 µM | OVCAR-3 62.4 µM | OVCAR-4 38.5 µM | OVCAR-5 83.8 µM | OVCAR-8 33.1 µM | PC-3 34.4 µM | RPMI-8226 > 100 µM | RXF 393 79.6 µM | SF-268 44 µM | SF-295 41.4 µM | SF-539 52.8 µM | SK-MEL-2 83.6 µM | SK-MEL-5 16.9 µM | SK-OV-3 > 100 µM | SN12C 23.4 µM | SNB-19 > 100 µM | SNB-75 33 µM | SR 26.3 µM | SW-620 57.3 µM | TK-10 63.8 µM | U-251 64.4 µM | UACC-257 33.8 µM | UACC-62 49.2 µM | UO-31 30.1 µM
31.6 µM: HCT-15

CC(C)(CN1CCCCC1)C(/C=C/c1ccccc1)=N\NC(=O)N/N=C(/C=C/c1ccccc1)C(C)(C)CN1CCCCC1
active: HCC 2998 0.543 µM | HL-60 1.08 µM | HT-29 1.07 µM | SR 0.508 µM
1.37 µM: HCT-15
inactive: 786-0 1.46 µM | A498 1.5 µM | A549 2.43 µM | ACHN 3.32 µM | BT-549 1.77 µM | CAKI-1 2.27 µM | CCRF-CEM 1.19 µM | COLO 205 1.44 µM | EKVX 6.84 µM | HCT-116 1.58 µM | HOP-62 1.85 µM | HOP-92 1.75 µM | Hs-578T 2.67 µM | IGROV-1 2.51 µM | K562 1.19 µM | KM12 2 µM | LOX IMVI 1.8 µM | M14 1.71 µM | MCF7 1.71 µM | MDA-MB-231 1.36 µM | MDA-MB-435 1.51 µM | MDA-N 1.63 µM | MOLT-4 1.67 µM | Malme-3M 2.04 µM | NCI-H226 2.37 µM | NCI-H23 2.08 µM | NCI-H460 1.38 µM | NCI-H522 1.83 µM | NCI/ADR-RES 1.74 µM | OVCAR-3 2.34 µM | OVCAR-4 3.93 µM | OVCAR-5 4.29 µM | OVCAR-8 1.78 µM | PC-3 1.97 µM | RPMI-8226 1.27 µM | SF-268 3.24 µM | SF-295 1.69 µM | SK-MEL-28 1.68 µM | SK-MEL-2 2.01 µM | SK-MEL-5 1.72 µM | SK-OV-3 3.32 µM | SN12C 1.89 µM | SNB-19 1.91 µM | SNB-75 1.38 µM | SW-620 1.7 µM | TK-10 1.75 µM | U-251 1.63 µM | UACC-257 1.71 µM | UACC-62 1.54 µM | UO-31 1.13 µM

CCn1ncc(N=O)c1N
> 100 µM: HCT-15
inactive: 786-0 > 100 µM | ACHN > 100 µM | CAKI-1 > 100 µM | DU-145 > 100 µM | EKVX > 100 µM | HCC 2998 56.2 µM | HOP-62 > 100 µM | HT-29 > 100 µM | LOX IMVI > 100 µM | MCF7 > 100 µM | MDA-MB-435 > 100 µM | MOLT-4 > 100 µM | NCI-H460 > 100 µM | NCI/ADR-RES > 100 µM | OVCAR-3 > 100 µM | OVCAR-5 > 100 µM | OVCAR-8 > 100 µM | PC-3 > 100 µM | SF-295 > 100 µM | SK-MEL-28 > 100 µM | SK-MEL-5 > 100 µM | SN12C > 100 µM | SR > 100 µM | SW-620 > 100 µM | T47D > 100 µM | TK-10 > 100 µM | UACC-257 > 100 µM | UACC-62 > 100 µM | UO-31 > 100 µM
